According to ChEMBL document CHEMBL3987221, “The Australian National University Dept Of Immunology Pathogen Box Compounds Screened” (2018):
The source made the active and inactive calls. The rule behind the calls is not given here.

Assays:
[1] = biological target: T1, Porphobilinogen deaminase (Homo sapiens) (UniProt P08397); conditions: at 100 µM
T1 sequence (whole entry): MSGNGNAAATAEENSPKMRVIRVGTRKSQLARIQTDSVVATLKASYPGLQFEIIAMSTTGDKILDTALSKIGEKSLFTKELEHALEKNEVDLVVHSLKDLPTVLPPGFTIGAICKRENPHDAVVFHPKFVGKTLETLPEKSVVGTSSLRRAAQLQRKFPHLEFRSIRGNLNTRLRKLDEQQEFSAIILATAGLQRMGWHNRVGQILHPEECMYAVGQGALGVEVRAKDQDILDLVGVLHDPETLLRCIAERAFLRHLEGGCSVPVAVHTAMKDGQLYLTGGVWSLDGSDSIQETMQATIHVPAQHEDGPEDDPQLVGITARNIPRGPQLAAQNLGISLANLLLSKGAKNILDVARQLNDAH
Description: Compound was evaluated for the inhibition of human HMBS at 100uM

[2] = biological target: T2, Ferrochelatase, mitochondrial (Homo sapiens) (UniProt P22830); conditions: at 10 µM
T2 sequence (whole entry): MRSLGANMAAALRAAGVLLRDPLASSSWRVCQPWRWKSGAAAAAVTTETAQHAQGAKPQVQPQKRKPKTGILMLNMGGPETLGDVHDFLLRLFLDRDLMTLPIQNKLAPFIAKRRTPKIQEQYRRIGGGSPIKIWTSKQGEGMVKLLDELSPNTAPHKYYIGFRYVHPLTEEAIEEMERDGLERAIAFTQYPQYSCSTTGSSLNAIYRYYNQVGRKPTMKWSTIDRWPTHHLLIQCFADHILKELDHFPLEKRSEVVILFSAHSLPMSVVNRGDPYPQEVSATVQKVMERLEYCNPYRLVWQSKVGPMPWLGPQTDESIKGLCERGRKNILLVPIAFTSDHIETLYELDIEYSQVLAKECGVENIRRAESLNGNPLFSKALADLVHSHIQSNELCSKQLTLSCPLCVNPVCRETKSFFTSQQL
Description: Compound was evaluated for the inhibition of human FECH at 10uM

Row | SMILES | inhibition [1] | inhibition [2]
1 | CC(C)NCC(=O)Nc1cccc(C(=O)Nc2cccc(C(F)(F)F)c2)c1 | inactive | inactive
2 | Nc1ncc(-c2ccc(C(F)(F)F)nc2)cc1-c1ccc(C(F)(F)F)nc1 | inactive | inactive
3 | O=C(CN1CCOCC1)Nc1ccc2ncnc(Nc3ccc(OCc4cccc(F)c4)c(Cl)c3)c2c1 | inactive | inactive
4 | O=[N+]([O-])c1cn2c(n1)OC[C@@H](OCc1ccc(OC(F)(F)F)cc1)C2 | inactive | inactive
5 | CC(Oc1cccc(Cl)c1)C(=O)Nc1ccc2oc(-c3ccncc3)nc2c1 (stereo not given) | inactive | inactive
6 | Cc1cc(NCCc2ccccc2)nc(NC(=N)Nc2ccc(Cl)cc2)n1 | inactive | inactive
7 | COc1ccc(-c2cc(NC(=O)c3ccc(F)cc3Cl)ccc2OC)cc1 | inactive | inactive
8 | Cc1cc(C)nc(-n2nc(C)cc2Nc2ccccc2)n1 | inactive | inactive
9 | CCOc1ccc2cc(-c3nn(CC4CCN(C)CC4)c4ncnc(N)c34)ccc2c1 | inactive | inactive
10 | Cc1cc(NCC(C)C)c2[nH]nc(-c3ccccc3)c2n1 | inactive | inactive
11 | COc1ccc(OC)c(NCc2ccc3nc(N)nc(N)c3c2Cl)c1 | inactive | inactive
12 | Cc1nc(-c2ccccn2)nc(NCCc2ccc(S(C)(=O)=O)cc2)c1Cl | inactive | inactive
13 | Nc1ccc2ncnc(Nc3ccc(OCc4cccc(F)c4)c(Cl)c3)c2c1 | inactive | inactive
14 | Cc1nn(C)c(C)c1NS(=O)(=O)c1c(Cl)cc(-c2ccnc(N3CCNCC3)c2)cc1Cl | inactive | inactive
15 | Cc1nnc(NCc2cccc(Cl)c2)c2ccccc12 | inactive | inactive
16 | COc1cccc(OC)c1C(=O)Nc1ccc(Cl)c(-c2nc3ccccc3s2)c1 | inactive | inactive
17 | Cc1nn(C(=O)Nc2cccc(C(F)(F)F)c2)c(C)c1Sc1ncccn1 | inactive | inactive
18 | N=C(N)c1ccc(OCCCCCOc2ccc(C(=N)N)cc2)cc1 | inactive | inactive
19 | CC1COC2(CCN(c3nc(=O)c4cc(C(F)(F)F)cc([N+](=O)[O-])c4s3)CC2)O1 (stereo not given) | inactive | inactive
20 | CC(=O)NC[C@@H]1CN(c2ccc(N3CCOCC3)c(F)c2)C(=O)O1 | inactive | inactive
21 | CNC(=O)C1Cc2c([nH]c3cc(Cl)ccc23)C2(CCN(CCc3ccccc3)CC2)N1 (stereo not given) | inactive | inactive
22 | O=C(c1ccco1)N(CCCn1ccnc1)c1nc2c(Cl)cccc2s1 | inactive | inactive
23 | NCC(c1cccs1)S(=O)(=O)c1ccccc1 (stereo not given) | inactive | inactive
24 | CCn1ncc2c(NC3CCOCC3)c(CNC(=O)c3ccnn3C)c(C)nc21 | inactive | inactive
25 | Nc1cccnc1Nc1ccc(Cl)cc1 | inactive | inactive
26 | NC(CC(=O)c1ccc(Cl)cc1Cl)C(Cl)(Cl)Cl (stereo not given) | inactive | inactive
27 | Cc1ccc(NC(=O)CC2COc3ccccc3O2)cc1Cl (stereo not given) | inactive | inactive
28 | Cc1ccccc1CN1CCC(O)(c2ccc(Cl)c(C(F)(F)F)c2)CC1 | inactive | inactive

Row | SMILES | inhibition [1] | inhibition [2]
29 | O=C(Cn1ccnc1[N+](=O)[O-])NCc1ccccc1 | inactive | inactive
30 | CCCc1ccc(S(=O)(=O)Nc2ccc(CN3CCN(CC4CC4)CC3)cc2)cc1 | inactive | inactive
31 | CC(C)(C)OC(=O)N1CCN(c2nccc(-c3ccc(-c4ccc(Cl)cc4)s3)n2)CC1 | inactive | inactive
32 | Cc1cc(C(=O)Nc2cnn(Cc3ccc(Cl)cc3Cl)c2)no1 | inactive | inactive
33 | Cc1nn2c(O)c3c(nc2c1-c1ccc(F)cc1)CCCC3 | inactive | inactive
34 | COc1ccc(C2(C(=O)Nc3ccc(Br)cc3)CCCC2)cc1 | inactive | inactive
35 | Nc1nccc2ccc(Oc3ccncc3)cc12 | inactive | inactive
36 | CCN(CC)CCCCCCNc1cc(OC)cc2c(C)ccnc12 | inactive | inactive
37 | CNC(=O)C1Cc2ccccc2N1C(=O)Cc1ccc(F)cc1 (stereo not given) | inactive | inactive
38 | Clc1ccc(CCNc2cc(-c3ccccc3)nc3ncnn23)cc1 | inactive | inactive
39 | Cc1cccc(NC(=O)c2cc(S(=O)(=O)N(C)c3ccc(F)cc3)ccc2Cl)n1 | inactive | inactive
40 | CCN(CC)S(=O)(=O)c1ccc(C(=O)Nc2cc(C)nn2-c2nc(C)c(C)c(=O)[nH]2)cc1 | inactive | inactive
41 | CC(C)/N=c1\cc2n(-c3ccc(Cl)cc3)c3ccccc3nc-2cc1Nc1ccc(Cl)cc1 | inactive | inactive
42 | Clc1cccc(C(c2ccc(CN3CCNCC3)cc2)n2ccnc2)c1 (stereo not given) | inactive | inactive
43 | COc1cccc(OCC(=O)c2ccc(Br)cc2)c1 | inactive | inactive
44 | O=C(Nc1nnc(-c2ccc(Cl)cc2)o1)c1cccc(C(F)(F)F)c1 | inactive | inactive
45 | CCc1ccc([C@@H]2C[C@H](C(F)(F)F)n3ncc(C(=O)NCc4ccc(OC)cc4)c3N2)cc1 | inactive | inactive
46 | O=C(NC1CC1)c1ccc(N2CCC(Cc3ccccc3)CC2)nc1 | inactive | inactive
47 | COc1ccc(Nc2ccccc2NC(=O)c2ccc(O)nc2)cc1 | inactive | inactive
48 | O=C(Nc1cccc(-c2ccc(NCCCN3CCCC3)nc2)c1)c1ccccc1 | inactive | inactive
49 | COc1cc(NC(C)CCCN)c2ncccc2c1 (stereo not given) | inactive | inactive
50 | COc1ccccc1C(C)NCC(=O)Nc1cc(C(F)(F)F)ccc1Cl (stereo not given) | inactive | inactive
51 | O=C(Nc1cccc(Cl)c1)c1cnc(N2CCN(c3ccncc3)CC2)c(Cl)c1 | inactive | inactive
52 | CS(=O)(=O)N1CCC(Cn2nc(Cc3cccc4ccccc34)c3c(N)ncnc32)CC1 | inactive | inactive
53 | O=C(NCCc1ccccc1)c1cc(-c2cccnc2)cnc1NCC1CC1 | inactive | inactive
54 | CN1CCN(CCCOc2ncc(Nc3ncc(-c4ccc(C(F)(F)F)c(F)c4)nc3C(N)=O)cn2)CC1 | inactive | inactive
55 | CS(=O)(=O)Cc1nc2ccccc2oc1=O | inactive | inactive
